Here are results for 34 compounds from patent US4863925A, “Cyclohexanedione derivative for hepatic disorders and a process for producing the same” (Nihon Nohyaku Co., Ltd., priority 1986, dated 1989).

This assay relates to hepatic disorder caused by carbon tetrachloride. The assay is described as follows: Effect of suppressing hepatic disorder caused by carbon tetrachloride (Test Example 1). Further details: key to Liver injury index: 0 = healthy, 2 = slight, 4 = evident injury, 6 = serious injury. Type of assay: in vivo, mice (dd-strain, male). The note with it: 30 mg/kg p.o., 6 h before CCl4 0.05 ml/kg p.o., 24 h after CCl4, mean of five mice; for Liver injury index: 0 healthy, 2 slightly affected, 4 evidently observed injury, 6 serious injury; for P-GPT (plasma glutamic pyruvic transaminase activity): Reitman-Frankel, 2,000 or higher calculated as 2,000. As to the method:
Effect of suppressing hepatic disorder caused by carbon tetrachloride. […] The animals were sacrificed 24 hours after the administration of carbon tetrachloride, and the extent of liver injury was examined. On the other hand, blood was collected from the animal at the time of the sacrifice, and centrifuged to obtain plasma. The plasma glutamic pyruvic transminase (GPT) activity was determined according to the method of Reitman-Frankel. The activity was expressed in terms of Karmen Units (K.U.). The conditions of the liver were expressed in terms of liver injury index as follows. |Liver injury index | Condition of liver |0 Healthy liver |2 Slightly affected |4 Evidently observed injury |6 Serious injury Mice were used in groups of five of test were represented by the mean value. When the GPT activity was 2,000 units or higher, or further determination was made, the activity was calculated as 2,000 units for reasons of convenience.

As to `CCN1CCN(CC)C2SC(=C3C(=O)CCCC3=O)SC21` (centres unmarked) [Compound No. 2], the Liver injury index came out at 0.4 and the “P-GPT (plasma glutamic pyruvic transaminase activity)” value (“P-GPT” below) is listed as 15 K.U.
In the same order, the values of `CN1CCN(C)C2SC(=C3C(=O)CC(C)(C)CC3=O)SC21` (centres unmarked) [Compound No. 4] are 0 and 11 K.U.
On to `CCCN1CCN(CCC)C2SC(=C3C(=O)CC(C)(C)CC3=O)SC21` (centres unmarked) [Compound No. 7], for which the Liver injury index was found to be 0 and the “P-GPT” value is 16 K.U.
In the same order, the values of `Cc1ccc(C2CC(=O)C(=C3SC4C(S3)N(C)CCN4C)C(=O)C2)cc1` (centres unmarked) [Compound No. 43] are 0.2 and 24 K.U.
In the same order, the values of `COc1ccc(C2CC(=O)C(=C3SC4NCCNC4S3)C(=O)C2)cc1` (centres unmarked) [Compound No. 53] are 0.1 and 13 K.U.
In the same order, the values of `CN1CCN(C)C2SC(=C3C(=O)CC(c4ccco4)CC3=O)SC21` (centres unmarked) [Compound No. 79] are 0 and 30 K.U.
As to `CN1CCN(C)C2SC(=C3C(=O)CCCC3=O)SC21` (centres unmarked) [compound 1], the Liver injury index is on record as 0.2 and the “P-GPT” value is listed as 14 K.U.
With `CCN1CCN(CC)C2SC(=C3C(=O)CC(C)(C)CC3=O)SC21` (centres unmarked) [compound 6], the Liver injury index amounted to 0 and the “P-GPT” value was 19 K.U.
In the same order, the values of `CCCN1CCN(CCC)C2SC(=C3C(=O)CCCC3=O)SC21` (centres unmarked) [compound 10] are 0 and 41 K.U.
With `CN1CCN(C)C2(C)SC(=C3C(=O)CCCC3=O)SC12` (centres unmarked) [compound 11], the Liver injury index amounted to 0.5 and the “P-GPT” value is reported as 16 K.U.
For `CN1CCN(C)C2(C)SC(=C3C(=O)CC(C)(C)CC3=O)SC12` (centres unmarked) [compound 12, 2-[1,2,5-trimethyl-2,5-diaza-7,9-dithiabicyclo(4.3.0)-nonane-8-ylidene]-5,5-dimethyl-1,3-cyclohexanedione], in that order: 0.4 and 33 K.U.
For `CC1CNC2SC(=C3C(=O)CC(C)(C)CC3=O)SC2N1` (centres unmarked) [compound 14, 2-[3-methyl-2,5-diaza-7,9-dithiabicyclo-(4.3.0)-nonane-8-ylidene]-5,5-dimethyl-1,3-cyclohexanedione], in that order: 0.4 and 18 K.U.
For `CC1CC(=O)C(=C2SC3C(S2)N(C)CCN3C)C(=O)C1` (centres unmarked) [compound 18], in that order: 1.2 and 22 K.U.
Turning to `CCC(C)C1CC(=O)C(=C2SC3C(S2)N(C)CCN3C)C(=O)C1` (centres unmarked) [compound 21], the Liver injury index came to 0.1 and the “P-GPT” value is 23 K.U.
In the same order, the values of `CCC1CCC(=O)C(=C2SC3C(S2)N(C)CCN3C)C1=O` (centres unmarked) [compound 25] are 0.8 and 15 K.U.
For `CN1CCN(C)C2SC(=C3C(=O)CC(c4ccccc4)CC3=O)SC21` (centres unmarked) [compound 26, 2-[2,5-dimethyl-2,5-diaza-7,9-dithiabicyclo(4,3, 0)-nonane-8-ylidene]-5-phenyl-1,3-cyclohexanedione], in that order: 0 and 12 K.U.
In the same order, the values of `CCCN1CCN(CCC)C2SC(=C3C(=O)CC(c4ccccc4)CC3=O)SC21` (centres unmarked) [compound 28] are 0.2 and 39 K.U.
Turning to `CN1CCN(C)C2SC(=C3C(=O)CC(c4ccccc4Cl)CC3=O)SC21` (centres unmarked) [compound 32], the Liver injury index came to 0.3 and the “P-GPT” value is reported as 22 K.U.
In the same order, the values of `CN1CCN(C)C2SC(=C3C(=O)CC(c4ccc(F)cc4)CC3=O)SC21` (centres unmarked) [compound 36] are 1.5 and 268 K.U.
For the compound `Cc1ccccc1C1CC(=O)C(=C2SC3C(S2)N(C)CCN3C)C(=O)C1` (centres unmarked) [compound 41], the Liver injury index is given as 0.4 and the “P-GPT” value was 213 K.U.
For `Cc1cccc(C2CC(=O)C(=C3SC4C(S3)N(C)CCN4C)C(=O)C2)c1` (centres unmarked) [compound 42], in that order: 0 and 14 K.U.
For `Cc1ccc(C2CC(=O)C(=C3SC4N(C)CCN(C)C4(C)S3)C(=O)C2)cc1` (centres unmarked) [compound 47], the Liver injury index was found to be 0 and the “P-GPT” value is recorded as 24 K.U.
For the compound `CCc1ccc(C2CC(=O)C(=C3SC4C(S3)N(C)CCN4C)C(=O)C2)cc1` (centres unmarked) [compound 48], the Liver injury index is recorded as 0.3 and the “P-GPT” value is 18 K.U.
For the compound `COc1ccccc1C1CC(=O)C(=C2SC3C(S2)N(C)CCN3C)C(=O)C1` (centres unmarked) [compound 51], the Liver injury index stood at 0 and the “P-GPT” value is given as 81 K.U.
Turning to `COc1cccc(C2CC(=O)C(=C3SC4C(S3)N(C)CCN4C)C(=O)C2)c1` (centres unmarked) [compound 52], the Liver injury index came to 0.1 and the “P-GPT” value was 14 K.U.
In the same order, the values of `CCN1CCN(CC)C2SC(=C3C(=O)CC(c4ccc(OC)cc4)CC3=O)SC21` (centres unmarked) [compound 56] are 2.5 and 50 K.U.
In the case of `CCCN1CCN(CCC)C2SC(=C3C(=O)CC(c4ccc(OC)cc4)CC3=O)SC21` (centres unmarked) [compound 57], the Liver injury index amounted to 0.2 and the “P-GPT” value was 142 K.U.
In the same order, the values of `COc1ccc(C2CC(=O)C(=C3SC4N(C)CCN(C)C4(C)S3)C(=O)C2)cc1` (centres unmarked) [compound 59] are 0.1 and 16 K.U.
In the same order, the values of `CCOc1ccc(C2CC(=O)C(=C3SC4C(S3)N(C)CCN4C)C(=O)C2)cc1` (centres unmarked) [compound 60] are 0.1 and 26 K.U.
For `CCOc1ccc(C2CC(=O)C(=C3SC4C(S3)N(CC)CCN4CC)C(=O)C2)cc1` (centres unmarked) [compound 61], in that order: 1.5 and 494 K.U.
For the compound `CCOc1ccc(C2CC(=O)C(=C3SC4N(C)CCN(C)C4(C)S3)C(=O)C2)cc1` (centres unmarked) [compound 63], the Liver injury index was found to be 0 and the “P-GPT” value is 15 K.U.
For `COc1ccc(C2CC(=O)C(=C3SC4C(S3)N(C)CCN4C)C(=O)C2)cc1OC` (centres unmarked) [compound 65], in that order: 1.6 and 347 K.U.
For `Cc1ccc(C2CC(=O)C(=C3SC4NCC(C)NC4S3)C(=O)C2)cc1` (centres unmarked) [compound 78], in that order: 0.2 and 18 K.U.
In the same order, the values of `CN1CCN(C)C2SC(=C3C(=O)CC(C4CCCCC4)CC3=O)SC21` (centres unmarked) [compound 80] are 1.0 and 405 K.U.
